# Source: US20260207623A1, “USE OF ESTETROL IN HEPATICALLY IMPAIRED PATIENTS” (ESTETRA SRL, priority 2022, published 2026)
# Tests used:
# [1] = tested on: female subjects with normal hepatic function, mild, moderate or severe hepatic impairment; assay: Safety and tolerability (TEAEs, clinical laboratory, vital signs, physical examination) after a single oral dose of 20 mg E4 monohydrate in the hepatic impairment study; assay type: in vivo, human; conditions: for TEAE: Back pain / TEAE: Diarrhea / TEAE: Gastrointestinal disorders / TEAE: General disorders and administration site conditions / TEAE: Haemarthrosis / TEAE: Headache / TEAE: Hypertension / TEAE: Musculoskeletal and connective tissue disorders / TEAE: Nervous system disorders / TEAE: Pain in extremity / TEAE: Pancreatitis / TEAE: Pyrexia / TEAE: Renal and urinary disorders / TEAE: Renal impairment / TEAE: Total Subjects with at Least One TEAE / TEAE: Vascular disorders / TEAE by severity: Back pain, severity Mild / TEAE by severity: Back pain, severity Moderate / TEAE by severity: Diarrhea, severity Mild / TEAE by severity: Diarrhea, severity Moderate / TEAE by severity: Gastrointestinal disorders, severity Mild / TEAE by severity: Gastrointestinal disorders, severity Moderate / TEAE by severity: General disorders and administration site conditions, severity Mild / TEAE by severity: Haemarthrosis, severity Mild / TEAE by severity: Headache, severity Mild / TEAE by severity: Headache, severity Moderate / TEAE by severity: Hypertension, severity Mild / TEAE by severity: Musculoskeletal and connective tissue disorders, severity Mild / TEAE by severity: Musculoskeletal and connective tissue disorders, severity Moderate / TEAE by severity: Nervous system disorders, severity Mild / TEAE by severity: Nervous system disorders, severity Moderate / TEAE by severity: Pain in extremity, severity Mild / TEAE by severity: Pancreatitis, severity Moderate / TEAE by severity: Pyrexia, severity Mild / TEAE by severity: Renal and urinary disorders, severity Mild / TEAE by severity: Renal impairment, severity Mild / TEAE by severity: Vascular disorders, severity Mild: single oral 20 mg
# Experimental: This was a Phase 1, multi-centre, open-label, PK, and safety study of a single oral dose of 20 mg E4 monohydrate in female subjects with normal hepatic function (Group 1), mild hepatic impairment (Group 2), moderate hepatic impairment (Group 3), and severe hepatic impairment (Group 4), as defined using the Child-Pugh classification at Screening.
# Safety and tolerability assessments consisted of treatment-emergent AEs (TEAEs), clinical laboratory, vital signs, physical examination, and gynecological examination. Assessments were performed in accordance with Table 2 and Table 3 in Section 2.5.1.
# AEs/TEAEs were recorded after signing of the ICF until completion of the follow up visit. Any clinically significant observations in results of clinical laboratory, vital signs, or physical examinations were recorded as AEs.
# A TEAE is defined as any event not present prior to administration of the study drug or any event already present that worsens in either severity or frequency following exposure to the study drug.
# The below listed tests were to be performed by the local laboratories at time points indicated in the Schedule of Assessments (Table 2).
# Systolic and diastolic blood pressure and pulse were recorded after the subject had been resting for at least 5 minutes in the supine position at time points indicated in the Schedule of Assessments (Table 2). These assessments were made using an automated device. Body temperature and respiratory rate were measured subsequently.
# A complete physical examination consisting of a review of all body systems was performed at time points indicated in the Schedule of Assessments (Table 2). A symptom-directed physical examination could be conducted at any time per Investigator's discretion.
# 2.6.2.2 Evaluation of Safety and Tolerability Safety and tolerability were assessed through TEAEs, clinical laboratory, vital signs, and physical examination findings, and any other parameter that was relevant for safety assessment.
# A listing of all individual AEs is provided. Summary tables of TEAEs are presented by system organ class (SOC) based on the MedDRA terminology list (preferred terms): a table containing the number of subjects experiencing AEs by hepatic function, a table containing the number of subjects experiencing SAEs by hepatic function (if applicable), a table by hepatic function and relationship, and a table by hepatic function and severity.
# [2] = tested on: C-Terminal Telopeptide (CTX-1); assay: Example 2 section F: C-terminal telopeptide (CTX-1), marker of bone resorption, at 15 mg and 20 mg daily doses; assay type: in vivo, human
# Experimental: In order to better assess the potential for increasing the daily dose beyond the minimum effective dose of 15 mg estetrol monohydrate daily, a number of parameters were followed in a study where estetrol monohydrate was administered at the increased dose of 20 mg per day.
# 6. C-Terminal Telopeptide (CTX-1) (Ng/L)
# CTX-1 is a specific marker of bone resorption.
# [3] = Normal hepatic function (N = 8)
# [4] = Severe hepatic impairment (N = 8)
compound,measurement,setting,value
"C[C@]12CC[C@@H]3c4ccc(O)cc4CC[C@H]3[C@@H]1[C@@H](O)[C@@H](O)[C@@H]2O [E4 monohydrate, estetrol monohydrate]",TEAE: Back pain,[1]; [3],1 (12.5) n (%)
same,TEAE: Diarrhea,[1]; [3],1 (12.5) n (%)
same,TEAE: Gastrointestinal disorders,[1]; [3],2 (25.0) n (%)
same,TEAE: General disorders and administration site conditions,[1]; [3],0 (0.0) n (%)
same,TEAE: Haemarthrosis,[1]; [3],0 (0.0) n (%)
same,TEAE: Headache,[1]; [3],0 (0.0) n (%)
same,TEAE: Hypertension,[1]; [3],0 (0.0) n (%)
same,TEAE: Musculoskeletal and connective tissue disorders,[1]; [3],1 (12.5) n (%)
same,TEAE: Nervous system disorders,[1]; [3],0 (0.0) n (%)
same,TEAE: Pain in extremity,[1]; [3],0 (0.0) n (%)
same,TEAE: Pancreatitis,[1]; [3],1 (12.5) n (%)
same,TEAE: Pyrexia,[1]; [3],0 (0.0) n (%)
same,TEAE: Renal and urinary disorders,[1]; [3],0 (0.0) n (%)
same,TEAE: Renal impairment,[1]; [3],0 (0.0) n (%)
same,TEAE: Total Subjects with at Least One TEAE,[1]; [3],2 (25.0) n (%)
same,TEAE: Vascular disorders,[1]; [3],0 (0.0) n (%)
same,"TEAE by severity: Back pain, severity Mild",[1]; [4],1 (12.5) n (%)
same,"TEAE by severity: Back pain, severity Moderate",[1]; [4],0 (0.0) n (%)
same,"TEAE by severity: Diarrhea, severity Mild",[1]; [4],0 (0.0) n (%)
same,"TEAE by severity: Diarrhea, severity Moderate",[1]; [4],0 (0.0) n (%)
same,"TEAE by severity: Gastrointestinal disorders, severity Mild",[1]; [4],0 (0.0) n (%)
same,"TEAE by severity: Gastrointestinal disorders, severity Moderate",[1]; [4],0 (0.0) n (%)
same,"TEAE by severity: General disorders and administration site conditions, severity Mild",[1]; [4],0 (0.0) n (%)
same,"TEAE by severity: Haemarthrosis, severity Mild",[1]; [4],0 (0.0) n (%)
same,"TEAE by severity: Headache, severity Mild",[1]; [4],0 (0.0) n (%)
same,"TEAE by severity: Headache, severity Moderate",[1]; [4],0 (0.0) n (%)
same,"TEAE by severity: Hypertension, severity Mild",[1]; [4],0 (0.0) n (%)
same,"TEAE by severity: Musculoskeletal and connective tissue disorders, severity Mild",[1]; [4],1 (12.5) n (%)
same,"TEAE by severity: Musculoskeletal and connective tissue disorders, severity Moderate",[1]; [4],0 (0.0) n (%)
same,"TEAE by severity: Nervous system disorders, severity Mild",[1]; [4],0 (0.0) n (%)
same,"TEAE by severity: Nervous system disorders, severity Moderate",[1]; [4],0 (0.0) n (%)
same,"TEAE by severity: Pain in extremity, severity Mild",[1]; [4],0 (0.0) n (%)
same,"TEAE by severity: Pancreatitis, severity Moderate",[1]; [4],0 (0.0) n (%)
same,"TEAE by severity: Pyrexia, severity Mild",[1]; [4],0 (0.0) n (%)
same,"TEAE by severity: Renal and urinary disorders, severity Mild",[1]; [4],1 (12.5) n (%)
same,"TEAE by severity: Renal impairment, severity Mild",[1]; [4],1 (12.5) n (%)
same,"TEAE by severity: Vascular disorders, severity Mild",[1]; [4],0 (0.0) n (%)
same,TEAE: Back pain,[1]; [4],1 (12.5) n (%)
same,TEAE: Diarrhea,[1]; [4],0 (0.0) n (%)
same,TEAE: Gastrointestinal disorders,[1]; [4],0 (0.0) n (%)
same,TEAE: General disorders and administration site conditions,[1]; [4],0 (0.0) n (%)
same,TEAE: Haemarthrosis,[1]; [4],0 (0.0) n (%)
same,TEAE: Headache,[1]; [4],0 (0.0) n (%)
same,TEAE: Hypertension,[1]; [4],0 (0.0) n (%)
same,TEAE: Musculoskeletal and connective tissue disorders,[1]; [4],1 (12.5) n (%)
same,TEAE: Nervous system disorders,[1]; [4],0 (0.0) n (%)
same,TEAE: Pain in extremity,[1]; [4],0 (0.0) n (%)
same,TEAE: Pancreatitis,[1]; [4],0 (0.0) n (%)
same,TEAE: Pyrexia,[1]; [4],0 (0.0) n (%)
same,TEAE: Renal and urinary disorders,[1]; [4],1 (12.5) n (%)
same,TEAE: Renal impairment,[1]; [4],1 (12.5) n (%)
same,TEAE: Total Subjects with at Least One TEAE,[1]; [4],1 (12.5) n (%)
same,TEAE: Vascular disorders,[1]; [4],0 (0.0) n (%)
same,"TEAE by severity: Back pain, severity Mild",[1]; Total (N = 32),1 (3.1) n (%)
same,"TEAE by severity: Back pain, severity Moderate",[1]; Total (N = 32),1 (3.1) n (%)
same,"TEAE by severity: Diarrhea, severity Mild",[1]; Total (N = 32),2 (6.3) n (%)
same,"TEAE by severity: Diarrhea, severity Moderate",[1]; Total (N = 32),1 (3.1) n (%)
same,"TEAE by severity: Gastrointestinal disorders, severity Mild",[1]; Total (N = 32),2 (6.3) n (%)
same,"TEAE by severity: Gastrointestinal disorders, severity Moderate",[1]; Total (N = 32),2 (6.3) n (%)
same,"TEAE by severity: General disorders and administration site conditions, severity Mild",[1]; Total (N = 32),1 (3.1) n (%)
same,"TEAE by severity: Haemarthrosis, severity Mild",[1]; Total (N = 32),1 (3.1) n (%)
same,"TEAE by severity: Headache, severity Mild",[1]; Total (N = 32),1 (3.1) n (%)
same,"TEAE by severity: Headache, severity Moderate",[1]; Total (N = 32),1 (3.1) n (%)
same,"TEAE by severity: Hypertension, severity Mild",[1]; Total (N = 32),2 (6.3) n (%)
same,"TEAE by severity: Musculoskeletal and connective tissue disorders, severity Mild",[1]; Total (N = 32),3 (9.4) n (%)
same,"TEAE by severity: Musculoskeletal and connective tissue disorders, severity Moderate",[1]; Total (N = 32),1 (3.1) n (%)
same,"TEAE by severity: Nervous system disorders, severity Mild",[1]; Total (N = 32),1 (3.1) n (%)
same,"TEAE by severity: Nervous system disorders, severity Moderate",[1]; Total (N = 32),1 (3.1) n (%)
same,"TEAE by severity: Pain in extremity, severity Mild",[1]; Total (N = 32),1 (3.1) n (%)
same,"TEAE by severity: Pancreatitis, severity Moderate",[1]; Total (N = 32),1 (3.1) n (%)
same,"TEAE by severity: Pyrexia, severity Mild",[1]; Total (N = 32),1 (3.1) n (%)
same,"TEAE by severity: Renal and urinary disorders, severity Mild",[1]; Total (N = 32),1 (3.1) n (%)
same,"TEAE by severity: Renal impairment, severity Mild",[1]; Total (N = 32),1 (3.1) n (%)
same,"TEAE by severity: Vascular disorders, severity Mild",[1]; Total (N = 32),2 (6.3) n (%)
same,TEAE: Back pain,[1]; Total (N = 32),2 (6.3) n (%)
same,TEAE: Diarrhea,[1]; Total (N = 32),3 (9.4) n (%)
same,TEAE: Gastrointestinal disorders,[1]; Total (N = 32),4 (12.5) n (%)
same,TEAE: General disorders and administration site conditions,[1]; Total (N = 32),1 (3.1) n (%)
same,TEAE: Haemarthrosis,[1]; Total (N = 32),1 (3.1) n (%)
same,TEAE: Headache,[1]; Total (N = 32),2 (6.3) n (%)
same,TEAE: Hypertension,[1]; Total (N = 32),2 (6.3) n (%)
same,TEAE: Musculoskeletal and connective tissue disorders,[1]; Total (N = 32),4 (12.5) n (%)
same,TEAE: Nervous system disorders,[1]; Total (N = 32),2 (6.3) n (%)
same,TEAE: Pain in extremity,[1]; Total (N = 32),1 (3.1) n (%)
same,TEAE: Pancreatitis,[1]; Total (N = 32),1 (3.1) n (%)
same,TEAE: Pyrexia,[1]; Total (N = 32),1 (3.1) n (%)
same,TEAE: Renal and urinary disorders,[1]; Total (N = 32),1 (3.1) n (%)
same,TEAE: Renal impairment,[1]; Total (N = 32),1 (3.1) n (%)
same,TEAE: Total Subjects with at Least One TEAE,[1]; Total (N = 32),9 (28.1) n (%)
same,TEAE: Vascular disorders,[1]; Total (N = 32),2 (6.3) n (%)
same,number of TEAEs considered related to the study drug,"[1]; diarrhea, mild intensity, 1 subject in the moderate group",1 TEAE
same,subjects reporting TEAE diarrhea,[1]; normal hepatic function group,1 subjects
same,overall safety and tolerability,"[1]; single oral dose of 20 mg, normal hepatic function, mild, moderate or severe hepatic impairment",safe and well tolerated
same,"deaths, SAEs, other significant AEs","[1]; whole study, monohydrate","No deaths, SAEs, or other significant AEs occurred"
same,bone resorption (CTX-1),[2]; 15 mg daily dose,small decrease of bone resorption
same,bone resorption (CTX-1),"[2]; 20 mg daily dose, after 28 days of treatment, compared with 15 mg",more pronounced
